According to ChEMBL document CHEMBL6103622 (J Med Chem, 2025):
pIC50: −log10 of the molar value. The source made the active and inactive calls. No cut-off for these calls is given here.

Assays:
[1] = target: Macrophage colony-stimulating factor 1 receptor (Homo sapiens, UniProt P07333); test: Inhibition of CSF-1R (unknown origin)
[2] = target: T1, Macrophage colony-stimulating factor 1 receptor (Mus musculus) (UniProt P09581); test: Inhibition of CSF-1R signaling pathway activation in female C57BL/6 mouse BMDM cells assessed as reduction in CSF-1R phosphorylation at 100 nM preincubated with compounds for 4 hrs followed by M-CSF stimulation and measured after 30 mins by Western blot analysis; type: cell-based; details: time 4.5 hrs
T1 sequence (whole entry): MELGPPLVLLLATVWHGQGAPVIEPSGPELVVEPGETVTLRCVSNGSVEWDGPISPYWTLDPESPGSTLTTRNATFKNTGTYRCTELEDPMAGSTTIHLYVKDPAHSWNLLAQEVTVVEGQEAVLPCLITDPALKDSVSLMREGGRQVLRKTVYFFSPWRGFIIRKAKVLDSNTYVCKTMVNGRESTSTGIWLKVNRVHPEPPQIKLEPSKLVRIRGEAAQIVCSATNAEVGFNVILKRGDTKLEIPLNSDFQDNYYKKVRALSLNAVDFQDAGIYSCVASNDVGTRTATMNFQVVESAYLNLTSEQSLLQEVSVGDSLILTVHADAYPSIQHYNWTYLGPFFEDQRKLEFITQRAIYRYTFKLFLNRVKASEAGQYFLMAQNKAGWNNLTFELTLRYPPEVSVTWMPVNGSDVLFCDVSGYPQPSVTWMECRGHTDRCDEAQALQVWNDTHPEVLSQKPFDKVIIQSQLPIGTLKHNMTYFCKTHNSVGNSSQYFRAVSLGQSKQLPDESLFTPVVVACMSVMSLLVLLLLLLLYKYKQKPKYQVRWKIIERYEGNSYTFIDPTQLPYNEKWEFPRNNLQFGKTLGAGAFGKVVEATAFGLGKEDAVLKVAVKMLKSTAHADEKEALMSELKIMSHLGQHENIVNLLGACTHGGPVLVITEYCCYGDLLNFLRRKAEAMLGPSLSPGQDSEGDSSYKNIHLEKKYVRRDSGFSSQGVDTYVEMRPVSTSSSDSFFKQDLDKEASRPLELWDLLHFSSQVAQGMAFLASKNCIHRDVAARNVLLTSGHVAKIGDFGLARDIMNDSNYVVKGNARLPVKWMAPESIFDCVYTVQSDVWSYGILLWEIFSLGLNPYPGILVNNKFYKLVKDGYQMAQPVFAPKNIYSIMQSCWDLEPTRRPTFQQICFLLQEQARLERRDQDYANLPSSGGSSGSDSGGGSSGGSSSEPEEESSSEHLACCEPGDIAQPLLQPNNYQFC

MC-38 [3] = test: Induction of apoptosis in mouse MC38 cells cocultured with condition medium of M2 macrophages assessed as late apoptotic cells at 100 nM by Annexin V/PI staining based flow cytometric analysis (reference value: 1.66 %); type: functional
MC-38 [4] = test: Induction of apoptosis in mouse MC38 cells assessed as early apoptotic cells at 100 nM by Annexin V/PI staining based flow cytometric analysis (reference value: 1.91 %); type: functional
MC-38 [5] = test: Induction of apoptosis in mouse MC38 cells assessed as late apoptotic cells at 100 nM by Annexin V/PI staining based flow cytometric analysis (reference value: 0.85 %); type: functional
MC-38 [6] = test: Induction of apoptosis in mouse MC38 cells cocultured with condition medium of M2 macrophages assessed as early apoptotic cells at 100 nM by Annexin V/PI staining based flow cytometric analysis (reference value: 3.16 %); type: functional
[7] = target: T1, Macrophage colony-stimulating factor 1 receptor (Mus musculus); test: Inhibition of CSF-1R signaling pathway activation in female C57BL/6 mouse BMDM cells assessed as reduction in AKT phosphorylation at Ser473 residue at 100 nM preincubated with compounds for 4 hrs followed by M-CSF stimulation and measured after 30 mins by Western blot analysis; type: cell-based; details: time 4.5 hrs
[8] = target: T1, Macrophage colony-stimulating factor 1 receptor (Mus musculus); test: Inhibition of CSF-1R signaling pathway activation in female C57BL/6 mouse BMDM cells assessed as reduction in CSF-1R phosphorylation at Tyr723 residue at 100 nM preincubated with compounds for 4 hrs followed by M-CSF stimulation and measured after 30 mins by Western blot analysis; type: cell-based; details: time 4.5 hrs

Sequence of Macrophage colony-stimulating factor 1 receptor (P07333 whole entry): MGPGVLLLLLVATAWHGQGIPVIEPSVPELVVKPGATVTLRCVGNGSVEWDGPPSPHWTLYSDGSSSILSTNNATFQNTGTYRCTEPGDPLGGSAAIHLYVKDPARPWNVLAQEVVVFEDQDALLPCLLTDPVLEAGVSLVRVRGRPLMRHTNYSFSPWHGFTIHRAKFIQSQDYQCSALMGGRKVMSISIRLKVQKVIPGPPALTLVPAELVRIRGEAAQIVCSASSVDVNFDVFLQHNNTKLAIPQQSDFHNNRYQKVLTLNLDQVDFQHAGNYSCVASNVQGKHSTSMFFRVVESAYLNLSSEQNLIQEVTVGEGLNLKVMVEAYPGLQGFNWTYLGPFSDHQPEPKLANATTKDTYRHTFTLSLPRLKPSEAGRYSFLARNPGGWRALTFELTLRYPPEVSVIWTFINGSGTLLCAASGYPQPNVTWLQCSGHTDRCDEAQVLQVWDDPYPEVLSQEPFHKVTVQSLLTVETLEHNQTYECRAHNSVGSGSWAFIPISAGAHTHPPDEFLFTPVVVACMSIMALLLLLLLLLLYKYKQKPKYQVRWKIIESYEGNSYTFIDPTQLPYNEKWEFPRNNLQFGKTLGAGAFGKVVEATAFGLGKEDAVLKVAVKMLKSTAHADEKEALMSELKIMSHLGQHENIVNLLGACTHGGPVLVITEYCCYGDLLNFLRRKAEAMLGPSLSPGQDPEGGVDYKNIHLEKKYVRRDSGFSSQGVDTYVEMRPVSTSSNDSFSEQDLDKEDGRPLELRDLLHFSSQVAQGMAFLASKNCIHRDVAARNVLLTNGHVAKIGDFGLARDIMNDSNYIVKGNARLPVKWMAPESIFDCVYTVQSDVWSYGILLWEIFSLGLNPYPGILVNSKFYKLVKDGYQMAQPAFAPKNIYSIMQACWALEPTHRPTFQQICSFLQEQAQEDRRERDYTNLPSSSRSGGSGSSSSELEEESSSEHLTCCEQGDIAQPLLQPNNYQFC

Row | pIC50 [1] | Compound | also measured
1 | 6.82 | Cc1nc(NC(=O)Nc2ccc(C(F)(F)F)nc2)ccc1Oc1c[nH]c2ncc(Cl)cc12 | 
2 | 7.51 | O[C@@H]1CCCC[C@H]1Nc1nc2ccc(Oc3c[nH]c4ncc(F)cc34)cc2s1 | inhibition [2]: Active; Weak Inhibitory Effect Observed
3 | < 6.00 | OC[C@H](Nc1nc2ccc(Oc3c[nH]c4ncc(Cl)cc34)cc2s1)C1CCCCC1 | 
4 | 6.88 | COc1cc(NC(=O)Nc2ccc(Oc3c[nH]c4ncc(Cl)cc34)c(C)n2)ccc1C(F)(F)F | 
5 | 7.25 | FC(F)(F)c1ccc(Nc2nc3ccc(Oc4c[nH]c5ncc(Cl)cc45)cc3s2)cc1 | 
6 | 7.07 | Cc1nc(NC(=O)Nc2ccc(F)cc2)ccc1Oc1c[nH]c2ncc(Cl)cc12 | 
7 |  | FC(F)(F)c1ccc(CNc2ccc(Cc3c[nH]c4ncc(Cl)cc34)cn2)cn1 [PEXIDARTINIB] | Activity (MC-38 [3]): 2.25%; Activity (MC-38 [4]): 1.8%; Activity (MC-38 [5]): 0.83%; Activity (MC-38 [6]): 8.49%
8 | 6.39 | Cc1nc(NC(=O)NCc2ccc(C(F)(F)F)nc2)ccc1Oc1c[nH]c2ncc(Cl)cc12 | 
9 | 7.59 | O[C@@H]1CCCC[C@H]1Nc1nc2ccc(Oc3c[nH]c4ncc(Cl)cc34)cc2s1 | inhibition [2]: Active; Weak Inhibitory Effect Observed
10 | 7.62 | COc1cc(NC(=O)Nc2ccc(Oc3c[nH]c4ncc(Cl)cc34)c(C)n2)cc(OC)c1OC | inhibition [7]: Active; Minimal Effect Observed; inhibition [8]: Active; Minimal Effect Observed
11 | < 6.00 | Cc1nc(NC(=O)Nc2cc(C(C)(C)C)no2)ccc1Oc1c[nH]c2ncc(Cl)cc12 | 
12 | 6.43 | Cc1nc(NC(=O)Nc2cccc(C(F)(F)F)c2)ccc1Oc1c[nH]c2ncc(Cl)cc12 | 
13 | 7.36 | O=C(Nc1ccc(Oc2c[nH]c3ncc(Cl)cc23)cc1)N[C@@H]1CCCC[C@H]1O | 
14 | 7.31 | Cc1nc(NC(=O)Nc2ccc(C(F)(F)F)cc2)ccc1Oc1c[nH]c2ncc(Cl)cc12 | 
15 | 7.46 | Cc1nc(NC(=O)Nc2cccc(Cl)c2)ccc1Oc1c[nH]c2ncc(Cl)cc12 | inhibition [7]: Active; Minimal Effect Observed; inhibition [8]: Active; Minimal Effect Observed
16 | 6.23 | Cc1nc(NC(=O)Nc2ccc(N3CCN(C)CC3)cc2)ccc1Oc1c[nH]c2ncc(Cl)cc12 | 
17 | 7.31 | O[C@@H]1CCCC[C@H]1Nc1nc2ccc(Cc3c[nH]c4ncc(Cl)cc34)cc2s1 | inhibition [2]: Active; Weak Inhibitory Effect Observed
18 | < 6.00 | Cc1nc(NC(=O)Nc2ccc(C(C)(C)C)c(Cl)c2)ccc1Oc1c[nH]c2ncc(Cl)cc12 | 
19 | 7.38 | O[C@@H]1CCCC[C@H]1Nc1nc2ccc(Oc3c[nH]c4nccc(F)c34)cc2s1 | 
